Reference: ChEMBL document CHEMBL1201862, “PubChem BioAssay data set” (2004)
The source made the active and inactive calls.

Key:
Type in all cases: functional
[1] = THP-1 cell cytotoxicity, cytotoxicity control, set 4 (AID 504911); settings: Mycobacterium tuberculosis
[2] = Vero cell cytotoxicity, dose response, cytotoxicity control for M. tuberculosis growth inhibitor project, Vero cells, purified and synthesized compounds, set 5 (AID 504909); settings: Mycobacterium tuberculosis
[3] = target: Melanin-concentrating hormone receptor 1 (Homo sapiens, UniProt Q99705); assay: Late-stage fluorescence-based counterscreen for antagonists of the G-protein coupled receptor 7 (GPR7): cell-based dose response assay to identify antagonists of the melanin-concentrating hormone receptor 1 (MCHR1) Set 5.
[4] = target: Neuropeptides B/W receptor type 1 (Homo sapiens, UniProt P48145); assay: human NPBW1 receptor blockade, IC50 – cell-based, fluorescence, dose response, set 5, late-stage follow-up (AID 588566)
Neuropeptides B/W receptor type 1, sequence (P48145 whole entry): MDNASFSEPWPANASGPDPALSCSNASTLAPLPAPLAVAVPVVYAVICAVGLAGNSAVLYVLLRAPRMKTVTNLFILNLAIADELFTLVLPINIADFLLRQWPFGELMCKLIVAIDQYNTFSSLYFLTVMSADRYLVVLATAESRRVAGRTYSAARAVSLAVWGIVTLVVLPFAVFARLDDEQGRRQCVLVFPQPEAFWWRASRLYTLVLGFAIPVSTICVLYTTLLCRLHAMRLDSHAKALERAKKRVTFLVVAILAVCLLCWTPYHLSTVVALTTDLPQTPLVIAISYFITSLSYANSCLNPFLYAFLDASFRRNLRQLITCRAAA

Melanin-concentrating hormone receptor 1, sequence (Q99705 whole entry): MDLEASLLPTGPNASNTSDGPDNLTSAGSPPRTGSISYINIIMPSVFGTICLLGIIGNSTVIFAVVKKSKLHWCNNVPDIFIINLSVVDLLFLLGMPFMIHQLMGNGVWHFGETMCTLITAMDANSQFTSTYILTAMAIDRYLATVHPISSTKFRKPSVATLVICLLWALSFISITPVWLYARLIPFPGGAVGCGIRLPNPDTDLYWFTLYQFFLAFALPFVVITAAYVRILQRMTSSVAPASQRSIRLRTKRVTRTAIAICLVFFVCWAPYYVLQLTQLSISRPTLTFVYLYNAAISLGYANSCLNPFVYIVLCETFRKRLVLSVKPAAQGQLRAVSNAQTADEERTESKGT

Row | Compound | CC50 [1] | CC50 [2] | IC50 [3] | IC50 [4]
1 | CO[C@H]1/C=C/O[C@@]2(C)Oc3c(C)c(O)c4c(O)c(c(C=NN5CCN(C)CC5)c(O)c4c3C2=O)NC(=O)/C(C)=C\C=C\[C@H](C)[C@H](O)[C@@H](C)[C@@H](O)[C@@H](C)[C@H](OC(C)=O)[C@@H]1C [RIFAMPIN] | 79.7 µM (active) | > 100 µM (active) | – | –
2 | COc1ccc(Oc2c(Cl)cnn(CC(=O)C(C)(C)C)c2=O)cc1 | – | – | > 20 µM (inactive) | > 20 µM (inactive)
